The target of one experiment is T1, c-Met (Homo sapiens, UniProt P08581).
T1 construct: endogenous in cells; host or cells: HepG3 cells; LSF-17 clone of HepG3 (stably overexpresses LSF, not c-Met)
Put plainly: Western blot of c-Met activation (p-c-Met) in HepG3 cells. The experiment is classed as cell-based. As to the method: FIGS. 10A-D. OPN activates c-Met. A. HepG3 cells were treated with OPN (100 ng/ml) for the indicated time points and p-c-Met and total c-Met levels were analyzed by Western blot analysis. B. Expression of OPN and p-c-Met was determined by immunohistochemical analysis in FFPE sections of normal liver and matched HCC. A representative figure is shown from one patient. C. Statistical correlation between OPN and phospho-c-Met levels in 50 human HCC patients analyzed by Pearson's test. D. Left panel: LSF-17consh-15 (Consh-15) is a clone of LSF-17 cells that stably expresses control scrambled shRNA and LSF-17-OPNsh-6 (OPNsh-6) and LSF-17-OPNsh-18 (OPNsh-18) are clones of LSF-17 cells stably expressing OPN shRNA. The expression of the indicated proteins was detected by Western blot analysis. Right panel, LSF-17 clone of HepG3 cells were treated with normal IgG (mouse and rabbit; Santa Cruz), anti-αvβ3 integrin antibody (mouse; Millipore) or anti-CD44 antibody (rabbit; Santa Cruz) at a concentration of 20 μg/ml for 24 h and the expression of the indicated proteins was detected by Western blot analysis.
(§1) FIGS. 12A-F. Inhibition of CD44 and c-Met by SU11274 blocks LSF function. A. LSF-17 cells were treated with normal IgG or anti-CD44 antibody and then subjected to Matrigel invasion assay. (B, C) Cell viability (MTT) assay of LSF-17 (B) and QGY-7703 (C) cells treated with SU11274 (5 μM) for the indicated time period. (D, E) Matrigel invasion assays of LSF-17 (D) and QGY-7703 (E) cells treated with SU11274 (5 μM). For SU11274 removal, cells were treated with SU11274 for 24 h before seeding them in the invasion chamber in SU11274-free condition. For A-E, data represent mean±SEM. F. HepG3 cells were untreated or treated with OPN (100 ng/ml) and with SU11274 (5 μM) for 24 h and the expression of the indicated proteins were detected by Western blot analysis. Asterisk (*) represents statistically significant difference (p<0.05).
(§2) Preparation of whole cell lysates and Western blot analyses were performed as described (5). The primary antibodies used were anti-LSF (1:2,000; mouse monoclonal; BD Biosciences), anti-pERK (1:2,000; rabbit polyclonal; Cell Signaling), anti-ERK (1:2,000; rabbit polyclonal; Cell Signaling), anti-pAKT (1:1,000; rabbit polyclonal; Cell Signaling) and anti-AKT (1:1,000; rabbit polyclonal; Cell Signaling). Blots were stripped and normalized by re-probing with anti-β-tubulin (1:1,000; mouse monoclona; Sigma).
To confirm the link between OPN and c-Met, HepG3 cells were treated with OPN (100 ng/ml) for 24 h in the presence or absence of SU11274. […] Treatment with OPN increased p-Akt/Akt ratio to 1.42 which was decreased to 0.63 upon SU11274 treatment.
Background: Immunoblotting shows a protein as a band on a membrane.

The test system of the next experiment is Akt. Put plainly: Western blot of Akt activation in HepG3 cells. In kind it is cell-based, human. The procedure:
as §1, §2
Treatment with OPN increased p-Akt/Akt ratio to 1.42 which was decreased to 0.63 upon SU11274 treatment.

For the next experiment, the system named is ERK. Briefly: Western blot of ERK activation in HepG3 cells. The experiment is classed as cell-based, human. The following applies: 24 h. As to the method:
as §1
Preparation of whole cell lysates and Western blot analyses were performed as described (5). The primary antibodies used were anti-LSF (1:2,000; mouse monoclonal; BD Biosciences), anti-pERK (1:2,000; rabbit polyclonal; Cell Signaling), anti-ERK (1:2,000; rabbit polyclonal; Cell Signaling), anti-pAKT (1:1,000; rabbit polyclonal; Cell Signaling) and anti-AKT (1:1,000; rabbit polyclonal; Cell Signaling). Blots were stripped and normalized by re-probing with anti-β-tubulin (1:1,000; mouse monoclona; Sigma). […]

The next experiment addresses T2, CD44 and c-Met (Homo sapiens, UniProt P16070).
T2 construct: endogenous in cells; host or cells: HepG3 cells (lysates)
Put plainly: Co-immunoprecipitation of CD44 and c-Met in HepG3 cells. The experiment is classed as cell-based. As to the method:
FIGS. 11A-E. OPN facilitates c-Met activation via CD44 receptor. A. Left panel, HepG3 cells were cultured in serum-free conditions. Right panel, HepG3 cells were cultured in serum-containing medium and untreated or treated with OPN (100 ng/ml) for 24 h. Cell lysates were subjected to immunoprecipitation by anti-c-Met antibody and immunoblotting with anti-CD44, anti-[…] integrin and anti-c-Met antibodies. B. The culture conditions are the same as in A. Immunoprecipitation was done with anti-CD44 antibody and immunoblotting was done with anti-c-Met and anti-CD44 antibody. C. HepG3 cell were cultured in serum-free conditions and then untreated or treated with OPN (100 ng/ml) for 24 h. Immunoprecipitation was done with anti-CD44 antibody and immunoblotting was done with anti-p-c-Met or anti-CD44 antibodies. D. Lysates from LSF-17 and QGY-7703 cells were subjected to immunoprecipitation by anti-c-Met antibody and immunoblotting by anti-CD44, anti-αvβ3 integrin and anti-c-Met antibodies. E. Lysates from LSF-17 and QGY-7703 cells were subjected to immunoprecipitation by anti-CD44 antibody and immunoblotting by anti-c-Met, anti-p-c-Met and anti-CD44 antibodies. The bottom panel serves as inputs for D and E. IgG was used as a control in all the experiments.
We next explored the molecular mechanism of c-Met activation by OPN using co-immunoprecipitation analysis. […]

For experiment [1], the system named is LSF-17 cells. Briefly: Cell viability by standard MTT assay, LSF-17 cells. In kind it is cell-based, human. As to conditions: SU11274 5 μM. As to the method: as §1, with “(p<0.05). Primary rat hepatocytes were isolated and cultured as described (19). SNU-423 cells were obtained from ATCC and cultured as instructed. HepG3, QGY-7703, Hep3B, HuH7, Focus and HEK-293 cells were cultured as described (20). Cell viability was determined by standard MTT assays as described (5). Colony formation, anchorage-independent growth in soft agar and matrigel invasion assays were performed exactly as described (5). […] LSF-17 cells and QGY-7703 cells were treated with the chemical inhibitor of c-Met, SU11274 (5 μM), and cell viability and Matrigel invasion was monitored. […]” for “(p<0.05).”
Background: Tetrazolium dyes change colour on reduction, which living cells bring about.

Experiment [2] concerns QGY-7703 cells. Briefly: Cell viability by standard MTT assay, QGY-7703 cells. The following applies: SU11274 5 μM. The experiment is classed as cell-based, human. The procedure: as §1
(§3) FIGS. 13A-F. Genetic inhibition of c-Met by shRNA blocks LSF function. […] A. Expression of the indicated proteins was detected in the indicated cells by Western blot analysis. […] D. QGY-7703 cells were transfected with control scrambled siRNA (siCon) or c-Met siRNA (siMet) and cell viability was measured by MTT assay. […] F. The expression of the indicated proteins was detected in the indicated cells by Western blot analysis. […]
(§4) Primary rat hepatocytes were isolated and cultured as described (19). […] Cell viability was determined by standard MTT assays as described (5). […]

The subject of a further experiment is parental HepG3 cells. Briefly: Cell viability, parental HepG3 cells. In kind it is cell-based, human. As to conditions: SU11274 treatment; data not shown. The procedure: Primary rat hepatocytes were isolated and cultured as described (19). SNU-423 cells were obtained from ATCC and cultured as instructed. HepG3, QGY-7703, Hep3B, HuH7, Focus and HEK-293 cells were cultured as described (20). Cell viability was determined by standard MTT assays as described (5). Colony formation, anchorage-independent growth in soft agar and matrigel invasion assays were performed exactly as described (5). We next investigated the importance of c-Met activation in mediating LSF function. LSF-17 cells and QGY-7703 cells were treated with the chemical inhibitor of c-Met, SU11274 (5 μM), and cell viability and Matrigel invasion was monitored. […] For invasion assay cells were treated with SU11274 for 24 h, a time point when no significant effect on cell viability was observed.

The subject of experiment [3] is LSF-17 cells. Briefly: Matrigel invasion assay, LSF-17 cells. In kind it is cell-based, human. The procedure: FIGS. 8A-D. Inhibition of OPN abrogates LSF-induced tumorigenesis and metastasis. The indicated clones were subcutaneously implanted in athymic nude mice. A. Tumor volume and tumor weight were measured 3 weeks after implantation. B. Graphical representation of metastatic lung nodules in the animals injected with the LSF-17consh-15 and LSF-17-OPNsh-18 clones via tail vein. The data represent mean±SEM. Inset: H&E sections of lungs of animals injected with the indicated clones. C. Parental HepG3 cells were treated with conditioned media from Control-8 or LSF-17 clone of HepG3 cells and then subjected to matrigel invasion. D. Matrigel invasion assay using LSF17 clone of HepG3 cells in the presence of neutralizing antibodies. Integrin: anti-αvβ3 integrin antibody. […]
FIGS. 12A-F. Inhibition of CD44 and c-Met by SU11274 blocks LSF function. […] F. HepG3 cells were untreated or treated with OPN (100 ng/ml) and with SU11274 (5 μM) for 24 h and the expression of the indicated proteins were detected by Western blot analysis. […]
as §4
We next investigated the importance of c-Met activation in mediating LSF function. LSF-17 cells and QGY-7703 cells were treated with the chemical inhibitor of c-Met, SU11274 (5 μM), and cell viability and Matrigel invasion was monitored. […]

Experiment [4] deals with QGY-7703 cells. Briefly: Matrigel invasion assay, QGY-7703 cells. The experiment is classed as cell-based, human. As to the method: as §1, §3, §4
The mark [5] stands for this setting: treated 24 h, then SU11274-free during invasion assay.
Setting [6] is: co-treatment with SU11274 5 μM, 24 h.

The results in this text go back to patent US9283244B2, “Treatment of cancer by inhibiting activity or expression of late SV-40 factor” (Virginia Commonwealth University, priority 2010, dated 2016).

T1 sequence (P08581 25-1390): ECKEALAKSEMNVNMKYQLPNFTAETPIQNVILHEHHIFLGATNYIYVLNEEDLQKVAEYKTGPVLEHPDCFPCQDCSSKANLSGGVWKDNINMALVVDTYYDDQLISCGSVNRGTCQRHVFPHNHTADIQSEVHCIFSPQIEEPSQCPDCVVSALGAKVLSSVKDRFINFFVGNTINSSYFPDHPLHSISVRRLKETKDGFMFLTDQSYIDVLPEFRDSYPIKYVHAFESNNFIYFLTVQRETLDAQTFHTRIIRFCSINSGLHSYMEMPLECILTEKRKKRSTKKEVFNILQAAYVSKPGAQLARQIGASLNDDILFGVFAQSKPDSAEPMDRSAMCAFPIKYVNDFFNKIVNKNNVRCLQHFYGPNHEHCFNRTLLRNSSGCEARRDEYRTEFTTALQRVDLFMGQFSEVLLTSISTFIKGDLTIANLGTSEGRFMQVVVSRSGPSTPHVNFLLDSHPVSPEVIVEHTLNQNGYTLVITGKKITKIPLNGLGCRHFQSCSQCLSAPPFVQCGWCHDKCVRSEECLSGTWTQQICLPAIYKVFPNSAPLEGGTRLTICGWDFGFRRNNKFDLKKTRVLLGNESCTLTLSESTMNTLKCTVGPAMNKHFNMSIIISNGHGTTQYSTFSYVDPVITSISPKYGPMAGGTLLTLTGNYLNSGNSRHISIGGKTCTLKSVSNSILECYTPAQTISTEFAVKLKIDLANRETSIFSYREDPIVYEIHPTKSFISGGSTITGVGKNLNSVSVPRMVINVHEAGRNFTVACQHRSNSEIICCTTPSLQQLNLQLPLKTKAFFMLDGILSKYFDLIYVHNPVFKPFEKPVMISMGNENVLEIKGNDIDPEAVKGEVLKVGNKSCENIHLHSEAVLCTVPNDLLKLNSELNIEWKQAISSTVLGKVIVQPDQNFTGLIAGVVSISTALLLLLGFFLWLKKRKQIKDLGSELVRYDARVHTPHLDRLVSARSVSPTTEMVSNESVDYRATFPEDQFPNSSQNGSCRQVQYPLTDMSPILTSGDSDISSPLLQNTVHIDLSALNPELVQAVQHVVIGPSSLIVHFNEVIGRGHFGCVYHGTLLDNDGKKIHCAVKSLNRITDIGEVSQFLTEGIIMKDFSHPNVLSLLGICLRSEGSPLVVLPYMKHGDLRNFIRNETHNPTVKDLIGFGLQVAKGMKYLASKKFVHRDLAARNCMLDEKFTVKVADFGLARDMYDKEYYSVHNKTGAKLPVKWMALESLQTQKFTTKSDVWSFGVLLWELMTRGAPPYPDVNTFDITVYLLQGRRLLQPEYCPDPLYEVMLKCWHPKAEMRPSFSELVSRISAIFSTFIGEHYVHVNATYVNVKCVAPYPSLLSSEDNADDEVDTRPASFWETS
T2 sequence (P16070 21-742): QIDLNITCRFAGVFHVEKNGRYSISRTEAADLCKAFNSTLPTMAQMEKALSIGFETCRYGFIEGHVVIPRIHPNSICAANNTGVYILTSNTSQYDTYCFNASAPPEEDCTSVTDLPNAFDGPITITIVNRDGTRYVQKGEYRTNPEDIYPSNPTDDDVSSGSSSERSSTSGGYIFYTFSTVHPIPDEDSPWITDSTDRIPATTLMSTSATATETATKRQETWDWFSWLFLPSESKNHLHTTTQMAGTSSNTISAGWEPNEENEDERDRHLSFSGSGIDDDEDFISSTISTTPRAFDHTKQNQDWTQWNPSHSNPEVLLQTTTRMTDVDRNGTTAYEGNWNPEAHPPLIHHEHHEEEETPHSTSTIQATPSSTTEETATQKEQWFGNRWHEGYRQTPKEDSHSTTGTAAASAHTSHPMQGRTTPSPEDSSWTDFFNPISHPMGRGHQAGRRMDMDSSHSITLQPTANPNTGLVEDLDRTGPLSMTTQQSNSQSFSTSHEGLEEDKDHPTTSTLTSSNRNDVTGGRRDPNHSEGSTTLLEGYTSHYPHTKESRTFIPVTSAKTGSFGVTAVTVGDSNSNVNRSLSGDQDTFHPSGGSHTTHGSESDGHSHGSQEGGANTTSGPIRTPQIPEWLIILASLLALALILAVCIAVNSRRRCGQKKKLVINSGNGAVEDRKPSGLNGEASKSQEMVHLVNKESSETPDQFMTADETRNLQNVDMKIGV
T2 sequence (P08581 308-1390 partner limits assumed): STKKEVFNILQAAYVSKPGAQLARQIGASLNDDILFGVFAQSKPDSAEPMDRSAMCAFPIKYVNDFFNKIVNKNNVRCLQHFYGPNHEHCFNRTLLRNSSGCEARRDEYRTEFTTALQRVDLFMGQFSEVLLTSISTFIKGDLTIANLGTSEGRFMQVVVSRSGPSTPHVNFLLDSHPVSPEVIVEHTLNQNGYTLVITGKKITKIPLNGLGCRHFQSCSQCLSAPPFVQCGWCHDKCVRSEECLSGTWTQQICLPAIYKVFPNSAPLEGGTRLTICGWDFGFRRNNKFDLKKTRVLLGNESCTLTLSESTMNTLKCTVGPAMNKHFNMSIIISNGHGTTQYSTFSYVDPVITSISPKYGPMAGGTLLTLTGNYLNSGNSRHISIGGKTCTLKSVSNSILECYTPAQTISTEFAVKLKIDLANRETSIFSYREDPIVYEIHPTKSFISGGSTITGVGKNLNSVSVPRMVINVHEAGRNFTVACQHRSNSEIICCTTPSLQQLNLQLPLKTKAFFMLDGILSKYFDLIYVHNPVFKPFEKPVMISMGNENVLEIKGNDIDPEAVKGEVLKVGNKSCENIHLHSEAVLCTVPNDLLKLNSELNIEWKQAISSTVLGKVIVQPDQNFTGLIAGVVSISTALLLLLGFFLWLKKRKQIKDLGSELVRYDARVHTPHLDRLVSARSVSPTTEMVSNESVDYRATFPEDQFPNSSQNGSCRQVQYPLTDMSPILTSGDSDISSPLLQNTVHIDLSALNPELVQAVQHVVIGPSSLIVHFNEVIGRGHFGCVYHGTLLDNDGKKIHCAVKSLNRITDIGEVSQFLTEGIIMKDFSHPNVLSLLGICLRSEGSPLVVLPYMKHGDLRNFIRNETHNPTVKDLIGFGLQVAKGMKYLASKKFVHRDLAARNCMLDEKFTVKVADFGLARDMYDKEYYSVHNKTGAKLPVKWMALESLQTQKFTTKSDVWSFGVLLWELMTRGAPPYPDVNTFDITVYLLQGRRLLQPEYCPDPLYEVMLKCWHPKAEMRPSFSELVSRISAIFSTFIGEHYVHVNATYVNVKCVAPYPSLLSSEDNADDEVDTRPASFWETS
T2 sequence (P08581 25-307 partner limits assumed): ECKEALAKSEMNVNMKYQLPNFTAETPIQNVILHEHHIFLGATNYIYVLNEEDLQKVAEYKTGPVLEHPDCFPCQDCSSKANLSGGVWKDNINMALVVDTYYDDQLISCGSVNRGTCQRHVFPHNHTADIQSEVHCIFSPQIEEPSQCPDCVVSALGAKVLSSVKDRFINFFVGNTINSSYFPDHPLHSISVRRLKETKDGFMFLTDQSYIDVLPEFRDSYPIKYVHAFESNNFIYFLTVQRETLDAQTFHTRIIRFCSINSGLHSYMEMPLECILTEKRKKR

As to “OPN: purified osteopontin, a secreted protein, added to cells at 100 ng/ml”, the “activation of c-Met” value with c-Met (OPN 100 ng/ml, 24 h) was “significantly activated”. Also, the “total c-Met level” value with c-Met (OPN treatment) is recorded as “did not change”. In the experiment with c-Met (purified OPN 100 ng/ml), the “activated c-Met level at 6 h post-treatment” value is given as “remained higher than basal level” and the “time of peak level of c-Met activation post-treatment” value was found to be 30 min. The “activation of Akt” value with Akt (OPN 100 ng/ml, 24 h) is recorded as “significantly activated”. In the experiment with Akt (OPN 100 ng/ml, 24 h, control group 0.58), the p-Akt/Akt ratio is 1.42. In addition, the “activation of ERK” value with ERK (OPN 100 ng/ml) is “significantly activated”. Further, the “binding affinity between c-Met and CD44” value with CD44 and c-Met (serum-containing culture, OPN 100 ng/ml) was “did not affect the binding affinity”. Further, the “association between CD44 and phospho-c-Met” value in the experiment with CD44 and c-Met (serum-free conditions, OPN 100 ng/ml 24 h) is “significantly increased”.
With `Cc1[nH]c(/C=C2\C(=O)Nc3ccc(S(=O)(=O)N(C)c4cccc(Cl)c4)cc32)c(C)c1C(=O)N1CCN(C)CC1` [SU11274], the “cell viability (MTT)” value with LSF-17 cells [1] and in the experiment with QGY-7703 cells [2] was “significantly decreased” throughout. In addition, the “viability of parental HepG3 cells” value with parental HepG3 cells is “did not affect the viability”. The Matrigel invasion result is given as “significantly inhibited” in the experiment on LSF-17 cells [3] (SU11274 5 μM, 24 h) and “significantly inhibited” in the experiment on QGY-7703 cells [4] (SU11274 5 μM, 24 h). The “Matrigel invasion after removal of SU11274” value in the experiment on LSF-17 cells [3] (setting [5]) and in the experiment with QGY-7703 cells [4] (setting [5]) was “significantly rescued the cells from inhibition of invasion” throughout. Further, the “inhibition of basal and OPN-induced activation of c-Met” value at c-Met (setting [6]) is listed as “significant inhibition”. For the same compound, the p-Akt/Akt ratio in the experiment on Akt (OPN 100 ng/ml plus SU11274, 24 h) turned out to be 0.63; with Akt (SU11274 alone (basal), control group 0.58) it was 0.05. Moreover, the “inhibition of basal and OPN-induced activation of Akt” value in the experiment with Akt (setting [6]) is “significant inhibition”. Moreover, the “inhibition of basal and OPN-induced activation of ERK” value in the experiment on ERK (SU11274 5 μM) was “partial inhibition”.
